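Cultured in 96-well plates, cells were exposed to test compound for 48 hours across five concentrations. GI50 marks 50% less growth.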 Calls of active or inactive are those of the source. Cut-off read from the data, not from the text of the source: active = GI50 up to about 1.1 µM and inactive = higher.
Assays:
Assay in all cases: growth of human tumour cells (NCI), 48 h
SN12C = system: SN12C
SK-OV-3 = system: SK-OV-3
EKVX = system: EKVX
HOP-62 = system: HOP-62
SK-MEL-5 = system: SK-MEL-5
UACC-62 = system: UACC-62
PC-3 = system: PC-3
NCI/ADR-RES = system: NCI/ADR-RES
MOLT-4 = system: MOLT-4
DU-145 = system: DU-145
HOP-92 = system: HOP-92
MDA-MB-231 = system: MDA-MB-231
RPMI-8226 = system: RPMI-8226
A498 = system: A498
SF-539 = system: SF-539
SK-MEL-2 = system: SK-MEL-2
T47D = system: T47D
A549 = system: A549
NCI-H522 = system: NCI-H522
Hs-578T = system: Hs-578T

Measured: GI50

S=C(NC/C(Br)=C/Br)Nc1cccc2ccccc12
inactive: SN12C 24.4 µM | SK-OV-3 37.5 µM | EKVX 28.9 µM | HOP-62 30.3 µM | SK-MEL-5 16.4 µM | UACC-62 24.2 µM | PC-3 23.1 µM | NCI/ADR-RES 19 µM | MOLT-4 17.8 µM | DU-145 30.9 µM | HOP-92 20.2 µM | MDA-MB-231 19.4 µM | RPMI-8226 15.4 µM | A498 33.5 µM | SF-539 25.5 µM | SK-MEL-2 20.4 µM | T47D 40.4 µM | A549 34.2 µM | NCI-H522 20 µM | Hs-578T > 100 µM

COc1ccccc1NC1=NCC(C)S1 (stereo not given)
inactive: SN12C > 100 µM | SK-OV-3 > 100 µM | EKVX > 100 µM | HOP-62 > 100 µM | SK-MEL-5 > 100 µM | UACC-62 > 100 µM | PC-3 > 100 µM | NCI/ADR-RES > 100 µM | MOLT-4 > 100 µM | DU-145 > 100 µM | HOP-92 > 100 µM | MDA-MB-231 > 100 µM | RPMI-8226 > 100 µM | A498 > 100 µM | SF-539 > 100 µM | SK-MEL-2 > 100 µM | T47D > 100 µM | A549 > 100 µM | NCI-H522 > 100 µM | Hs-578T > 100 µM

C/C(=N\O)c1cccc(Nc2c3ccccc3nc3occc23)c1
inactive: SN12C 11.8 µM | SK-OV-3 10.4 µM | EKVX 5.86 µM | HOP-62 3.13 µM | SK-MEL-5 3.07 µM | UACC-62 3.42 µM | PC-3 17.7 µM | NCI/ADR-RES 2.3 µM | MOLT-4 4.25 µM | DU-145 14.8 µM | HOP-92 7.24 µM | MDA-MB-231 4.51 µM | RPMI-8226 3.07 µM | A498 16.7 µM | SF-539 4.25 µM | SK-MEL-2 4.18 µM | T47D 2.56 µM | A549 4.93 µM | NCI-H522 1.74 µM | Hs-578T 8.61 µM

CC1(C)CCCCCCC2OC2CCCCCC(C)(C)C1=O (stereo not given)
inactive: SN12C > 44.8 µM | SK-OV-3 69.8 µM | EKVX 60.1 µM | HOP-62 49.8 µM | SK-MEL-5 22.3 µM | UACC-62 19 µM | PC-3 35.1 µM | NCI/ADR-RES 25.9 µM | MOLT-4 24 µM | DU-145 > 71.1 µM | HOP-92 27 µM | MDA-MB-231 29.9 µM | RPMI-8226 32.5 µM | A498 > 84.9 µM | SF-539 > 94.8 µM | SK-MEL-2 31.8 µM | T47D 29.9 µM | A549 39.3 µM | NCI-H522 22.1 µM | Hs-578T 45.1 µM

CCOC(=O)N1CCN(c2nc(C)n(-c3ccccc3)c(=S)c2C#N)CC1
inactive: SN12C > 100 µM | SK-OV-3 > 82.2 µM | EKVX > 82.2 µM | HOP-62 > 75.5 µM | SK-MEL-5 > 100 µM | UACC-62 > 43.6 µM | PC-3 > 43.4 µM | NCI/ADR-RES 30 µM | MOLT-4 > 40.1 µM | DU-145 > 90.4 µM | HOP-92 > 65.9 µM | MDA-MB-231 23.4 µM | RPMI-8226 > 62.7 µM | A498 > 100 µM | SF-539 > 83.4 µM | SK-MEL-2 > 76.4 µM | T47D > 100 µM | A549 97.9 µM | NCI-H522 > 34.9 µM | Hs-578T 34.3 µM

Oc1[nH]c(NCc2ccc(Cl)cc2)nc2ncnc1-2
inactive: SN12C > 100 µM | SK-OV-3 > 100 µM | EKVX > 100 µM | HOP-62 > 100 µM | SK-MEL-5 > 100 µM | UACC-62 > 100 µM | PC-3 > 100 µM | NCI/ADR-RES > 100 µM | MOLT-4 > 100 µM | DU-145 > 100 µM | HOP-92 > 100 µM | MDA-MB-231 > 100 µM | RPMI-8226 > 100 µM | A498 > 100 µM | SF-539 > 100 µM | SK-MEL-2 > 100 µM | T47D > 100 µM | A549 > 100 µM | NCI-H522 30.3 µM | Hs-578T 44.8 µM

OC1(c2ccc(Cl)cc2)c2ccccc2-c2nc3ccccc3n21 (stereo not given)
inactive: SN12C > 100 µM | SK-OV-3 49 µM | EKVX 84.7 µM | HOP-62 37.8 µM | SK-MEL-5 > 100 µM | UACC-62 > 100 µM | PC-3 44.3 µM | NCI/ADR-RES 67.1 µM | MOLT-4 > 100 µM | DU-145 79.4 µM | HOP-92 > 100 µM | MDA-MB-231 > 100 µM | RPMI-8226 49.3 µM | A498 > 100 µM | SF-539 > 100 µM | SK-MEL-2 39.3 µM | T47D > 100 µM | A549 52.7 µM | NCI-H522 66.8 µM | Hs-578T > 100 µM
